Test results taken from US20110319392A1, “Thiazole Sulfonamide And Oxazole Sulfonamide Kinase Inhibitors” (priority 2009, published 2011).
Structures can show the parent of a compound that is named as a salt.

What was measured:
[1] = system: BT474 tumor cells; experiment: Cell growth inhibition assay (CellTiter-Glo), BT474; type: cell-based, Human; conditions: 3 days incubation
[2] = system: HT-29 tumor cells; experiment: Cell growth inhibition assay (CellTiter-Glo), HT-29; type: cell-based, Human; conditions: Homo sapiens
In short: (§1)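 Cells seeded at 500/well (HN5 and HT-29 in high-glucose DMEM/10% FBS; A375P F11s in RPMI/10% FBS with pyruvate; SK-MEL-3 in McCoy's 5A/15% FBS), then exposed next day to 1:3 serial compound dilutions (0.2% DMSO) for 3 days at 37° C. CellTiter-Glo luminescence measured ATP; IC50 derived by 4-parameter fit.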

[3] = target: T1, ErbB2 (Homo sapiens, UniProt P04626); experiment: ErbB-2 substrate phosphorylation assay (HTRF); type: biochemical
T1 construct: made in house; host or cells: baculovirus expression system
T1 sequence (P04626 23-1255): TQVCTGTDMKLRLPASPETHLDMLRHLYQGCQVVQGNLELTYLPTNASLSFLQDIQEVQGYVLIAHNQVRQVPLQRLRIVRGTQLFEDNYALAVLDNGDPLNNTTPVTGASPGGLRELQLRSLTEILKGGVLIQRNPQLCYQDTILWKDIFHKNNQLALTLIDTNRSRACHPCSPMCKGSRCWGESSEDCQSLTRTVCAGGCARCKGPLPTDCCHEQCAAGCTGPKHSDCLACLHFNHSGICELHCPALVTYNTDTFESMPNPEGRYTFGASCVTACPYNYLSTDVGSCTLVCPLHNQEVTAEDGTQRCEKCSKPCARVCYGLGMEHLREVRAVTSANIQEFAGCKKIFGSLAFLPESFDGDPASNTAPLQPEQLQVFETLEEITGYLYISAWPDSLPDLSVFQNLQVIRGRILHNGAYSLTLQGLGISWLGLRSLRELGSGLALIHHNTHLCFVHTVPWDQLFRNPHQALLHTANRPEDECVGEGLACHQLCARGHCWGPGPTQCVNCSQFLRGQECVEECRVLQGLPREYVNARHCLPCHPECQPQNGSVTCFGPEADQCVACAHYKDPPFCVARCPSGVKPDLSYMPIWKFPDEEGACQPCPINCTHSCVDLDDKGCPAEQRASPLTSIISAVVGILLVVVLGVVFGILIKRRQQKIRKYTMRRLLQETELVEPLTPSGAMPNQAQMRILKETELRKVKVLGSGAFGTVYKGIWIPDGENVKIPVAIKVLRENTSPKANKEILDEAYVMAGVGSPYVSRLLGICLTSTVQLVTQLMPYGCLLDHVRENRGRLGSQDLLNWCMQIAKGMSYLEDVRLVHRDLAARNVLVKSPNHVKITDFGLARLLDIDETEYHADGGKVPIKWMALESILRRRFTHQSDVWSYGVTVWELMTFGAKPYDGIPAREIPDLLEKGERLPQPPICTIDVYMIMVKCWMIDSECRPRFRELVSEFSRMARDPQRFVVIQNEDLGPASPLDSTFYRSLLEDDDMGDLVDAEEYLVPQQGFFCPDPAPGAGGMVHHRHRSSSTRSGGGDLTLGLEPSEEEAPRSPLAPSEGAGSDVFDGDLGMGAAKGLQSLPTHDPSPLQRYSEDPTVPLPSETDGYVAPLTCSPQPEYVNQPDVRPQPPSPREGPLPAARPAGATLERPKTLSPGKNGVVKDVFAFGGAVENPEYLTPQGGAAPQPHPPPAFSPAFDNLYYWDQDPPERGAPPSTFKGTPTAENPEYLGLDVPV
In short: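 Baculovirus-expressed EGFR (0.8 nM) or ErbB2 (10 nM) in enzyme mix, preincubated 1 h at 20 °C with compound (0.00027–47.6 μM final), then 90 min at 20 °C with substrate mix of 20 μM ATP, 0.8 uM biotinylated Peptide C, MnCl2, MOPS pH 7.5. Phosphotyrosine by HTRF; pIC50 reported.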

[4] = system: SK-MEL-3 tumor cells; experiment: Cell growth inhibition assay (CellTiter-Glo), SK-MEL-3; type: cell-based, Human; conditions: for IC50: Homo sapiens, SK-MEL3
In short: as §1

| IC50 ([1]; Homo sapiens, BT-474, 72 h) [nM] | IC50 [2] [nM] | IC50 [3] [nM] | IC50 [4] [nM] | IC50 [1] [nM] | SMILES | Activity in SK-MEL-3 Tumor Cells [4] |
| --- | --- | --- | --- | --- | --- | --- |
| > 1000 | > 1000 | 100 to 1000 | – | – | CC(C)c1nc(-c2cccc(NS(=O)(=O)C3CCCCC3)c2)c(-c2ccnc(Nc3ccc(N4CCOCC4)c(F)c3)n2)s1 [Example 38] | + (activity of >1 μM in SK-MEL-3 tumor cells) |
| > 1000 | < 100 | > 1000 | < 100 | – | COc1ccc(S(=O)(=O)Nc2cccc(-c3nc(C(C)C)sc3-c3ccnc(Nc4ccc(N5CCOCC5)nc4)n3)c2)cn1 [Example 49] | – |
| > 1000 | < 100 | 100 to 1000 | < 100 | – | COc1ccc(Nc2nccc(-c3sc(C(C)C)nc3-c3cccc(NS(=O)(=O)c4c(F)cccc4F)c3)n2)cc1N(C)C [Example 18, N-{3-[5-(2-{[3-(Dimethylamino)-4-(methyloxy)phenyl]amino}-4-pyrimidinyl)-2-(1-methylethyl)-1,3-thiazol-4-yl]phenyl}-2,6-difluorobenzenesulfonamide trifluoroacetate] | – |
| > 1000 | < 100 | > 1000 | < 100 | – | O=S(=O)(Nc1cccc(-c2nc(N3CCOCC3)sc2-c2ccnc(Nc3ccc(N4CCOCC4)nc3)n2)c1Cl)c1c(F)cccc1F [Example 146] | – |
| > 1000 | 100 to 1000 | 100 to 1000 | 100 to 1000 | – | CN1CCN(c2nc(-c3ccc(F)c(NS(=O)(=O)c4c(F)cccc4F)c3)c(-c3ccnc(Nc4ccc(N5CCOCC5)nc4)n3)s2)CC1 [Example 126] | – |
| > 1000 | > 1000 | < 100 | 100 to 1000 | – | COc1cc(N2CCN(CCS(C)(=O)=O)CC2)c(C)cc1Nc1nccc(-c2sc(C(C)C)nc2-c2cccc(NS(=O)(=O)c3c(F)cccc3F)c2)n1 [Example 19] | – |
| > 1000 | < 100 | < 100 | < 100 | – | CS(=O)(=O)CCN1CCN(c2ccc(Nc3nccc(-c4oc(N5CCCC5)nc4-c4cccc(NS(=O)(=O)c5c(F)cccc5F)c4F)n3)cc2F)CC1 [Example 167] | – |
| > 1000 | < 100 | 100 to 1000 | < 100 | – | CC(=O)N1CCN(c2ccc(Nc3nccc(-c4sc(C(C)C)nc4-c4cccc(NS(=O)(=O)c5ccccc5F)c4)n3)cn2)CC1 [Example 12, N-{3-[5-(2-{[6-(4-Acetyl-1-piperazinyl)-3-pyridinyl]amino}-4-pyrimidinyl)-2-(1-methylethyl)-1,3-thiazol-4-yl]phenyl}-2-fluorobenzenesulfonamide] | – |
| > 1000 | 100 to 1000 | 100 to 1000 | 100 to 1000 | – | O=S(=O)(Nc1cc(-c2nc(N3CCOCC3)sc2-c2ccnc(Nc3ccc(N4CCOCC4)nc3)n2)ccc1F)c1c(F)cccc1F [Example 121] | – |
| > 1000 | < 100 | > 1000 | < 100 | – | CS(=O)(=O)c1cccc(Nc2nccc(-c3sc(N4CCOCC4)nc3-c3cccc(NS(=O)(=O)c4c(F)cccc4F)c3Cl)n2)c1 [Example 145] | – |
| 100 to 1000 | > 1000 | < 100 | 100 to 1000 | – | CC(C)c1nc(-c2ccc(F)c(NS(=O)(=O)c3c(F)cccc3F)c2)c(-c2ccnc(Nc3cccc(CCS(N)(=O)=O)c3)n2)s1 [Example 113] | – |
| > 1000 | < 100 | 100 to 1000 | < 100 | – | CC(C)c1nc(-c2cccc(NS(=O)(=O)c3cccs3)c2)c(-c2ccnc(Nc3ccc(N4CCOCC4)nc3)n2)s1 [Example 51] | – |
| > 1000 | > 1000 | > 1000 | 100 to 1000 | – | CC(=O)N1CCN(c2ccc(Nc3nccc(-c4sc(C(C)C)nc4-c4cccc(NS(=O)(=O)c5cccc(C(F)(F)F)c5)c4)n3)cn2)CC1 [Example 70] | – |
| > 1000 | < 100 | < 100 | < 100 | – | O=S(=O)(Nc1cccc(-c2nc(N3CCCC3)sc2-c2ccnc(Nc3ccc(N4CCN(CCF)CC4)c(F)c3)n2)c1)c1c(F)cccc1F [Example 21, 2,6-Difluoro-N-{3-[5-[2-({3-fluoro-4-[4-(2-fluoroethyl)-1-piperazinyl]phenyl}amino)-4-pyrimidinyl]-2-(1-pyrrolidinyl)-1,3-thiazol-4-yl]phenyl}benzenesulfonamide] | – |
| > 1000 | < 100 | 100 to 1000 | < 100 | – | CS(=O)(=O)c1cccc(Nc2nccc(-c3sc(N4CCOCC4)nc3-c3cccc(NS(=O)(=O)c4c(F)cccc4F)c3F)n2)c1 [Example 130] | – |
| > 1000 | > 1000 | 100 to 1000 | – | – | O=S(=O)(Nc1cc(-c2nc(N3CCOCC3)sc2-c2ccnc(Nc3ccc4c(c3)OCCO4)n2)ccc1F)c1c(F)cccc1F [Example 127] | + (activity of >1 μM in SK-MEL-3 tumor cells) |

| IC50 ([1]; Homo sapiens, BT-474, 72 h) [nM] | IC50 [2] [nM] | IC50 [3] [nM] | IC50 [4] [nM] | IC50 [1] [nM] | SMILES | Activity in SK-MEL-3 Tumor Cells [4] |
| --- | --- | --- | --- | --- | --- | --- |
| > 1000 | 100 to 1000 | < 100 | 100 to 1000 | – | CC(C)c1nc(-c2ccc(F)c(NS(=O)(=O)c3ccccc3F)c2)c(-c2ccnc(Nc3ccc(N4CCN(CCS(C)(=O)=O)CC4)c(F)c3)n2)s1 [Example 22, 2-Fluoro-N-{2-fluoro-5-[5-{2-[(3-fluoro-4-}4-[2-(methylsulfonyl)ethyl]-1-piperazinyl}phenyl)amino]-4-pyrimidinyl}-2-(1-methylethyl)-1,3-thiazol-4-yl]phenyl}benzenesulfonamide hydrochloride] | – |
| > 1000 | 100 to 1000 | < 100 | 100 to 1000 | – | CCNc1nc(-c2ccc(F)c(NS(=O)(=O)c3c(F)cccc3F)c2)c(-c2ccnc(Nc3ccc(N4CCOCC4)nc3)n2)s1 [Example 166] | – |
| – | 100 to 1000 | < 100 | 100 to 1000 | > 1000 | CCNc1nc(-c2cccc(NS(=O)(=O)c3ccccc3)c2)c(-c2ccnc(Nc3ccc(OCCN4CCCC4)c(F)c3)n2)s1 [Example 65] | – |
| > 1000 | 100 to 1000 | 100 to 1000 | < 100 | – | CN1CCC(c2nc(-c3ccc(F)c(NS(=O)(=O)c4c(F)cccc4F)c3)c(-c3ccnc(Nc4ccc(N5CCOCC5)nc4)n3)s2)CC1 [Example 106] | – |
| > 1000 | > 1000 | 100 to 1000 | < 100 | – | CC(C)c1nc(-c2ccc(F)c(NS(=O)(=O)c3c(F)cccc3F)c2)c(-c2ccnc(Nc3ccc(N4CCN5CCOC[C@H]5C4)nc3)n2)s1 [Example 97] | – |
| > 1000 | 100 to 1000 | 100 to 1000 | 100 to 1000 | – | CC(C)c1nc(-c2ccc(F)c(NS(=O)(=O)c3ccccc3C#N)c2)c(-c2ccnc(Nc3ccc(N4CCOCC4)nc3)n2)s1 [Example 107] | – |
| > 1000 | < 100 | 100 to 1000 | < 100 | – | CC(C)c1nc(-c2cccc(NS(=O)(=O)c3c(F)cccc3F)c2)c(-c2ccnc(Nc3ccc(N4CCN(CCS(C)(=O)=O)CC4)c(F)c3)n2)s1 [Example 16, 2,6-Difluoro-N-{3-[5-{2-[(3-fluoro-4-{4-[2-(methylsulfonyl)ethyl]-1-piperazinyl}phenyl)amino]-4-pyrimidinyl}-2-(1-methylethyl)-1,3-thiazol-4-yl]ohenyl}benzenesulfonamide hydrochloride] | – |
| > 1000 | < 100 | > 1000 | < 100 | – | Cc1nc(-c2cccc(NS(=O)(=O)c3c(F)cccc3F)c2)c(-c2ccnc(Nc3ccc(N4CCOCC4)nc3)n2)s1 [Example 133] | – |
| > 1000 | 100 to 1000 | > 1000 | < 100 | – | O=S(=O)(Nc1cccc(-c2ncsc2-c2ccnc(Nc3ccc(N4CCOCC4)nc3)n2)c1)c1c(F)cccc1F [Example 162] | – |
| > 1000 | 100 to 1000 | > 1000 | < 100 | – | CC(=O)N1CCN(c2ccc(Nc3nccc(-c4oc(C(C)C)nc4-c4cccc(NS(=O)(=O)c5c(F)cccc5F)c4)n3)cn2)CC1 [Example 56] | – |
| > 1000 | > 1000 | 100 to 1000 | – | – | Cc1cc(N2CCOCC2)ncc1Nc1nccc(-c2sc(N3CCCC3)nc2-c2cccc(NS(=O)(=O)c3c(F)cccc3F)c2)n1 [Example 124] | + (activity of >1 μM in SK-MEL-3 tumor cells) |
| > 1000 | < 100 | 100 to 1000 | < 100 | – | Cc1cc(Nc2nccc(-c3sc(C(C)(C)C)nc3-c3cccc(NS(=O)(=O)c4c(F)cccc4F)c3F)n2)ccn1 [Example 159] | – |
| > 1000 | < 100 | 100 to 1000 | < 100 | – | CC(=O)N1CCN(c2ccc(Nc3nccc(-c4sc(C(C)C)nc4-c4cccc(NS(=O)(=O)c5cccc(F)c5)c4)n3)cn2)CC1 [Example 11, N-{3-[5-(2-{[6-(4-Acetyl-1-piperazinyl)-3-pyridinyl]amino}-4-pyrimidinyl)-2-(1-methylethyl)-1,3-thiazol-4-yl]phenyl}-3-fluorobenzenesulfonamide] | – |
| > 1000 | 100 to 1000 | < 100 | 100 to 1000 | – | CC(C)c1nc(-c2ccc(F)c(NS(=O)(=O)c3c(F)cccc3F)c2)c(-c2ccnc(Nc3ccnc(N4CCOCC4)c3)n2)s1 [Example 117] | – |
| > 1000 | < 100 | > 1000 | 100 to 1000 | – | CC(C)c1nc(-c2cc(F)c(F)c(NS(=O)(=O)c3cccc(F)c3)c2)c(-c2ccnc(Nc3cnc(N4CCOCC4)c(F)c3)n2)s1 [Example 31, N-{2,3-Difluoro-5-[5-(2-{[5-fluoro-6-(4-morpholinyl)-3-pyridinyl]amino}-4-pyrimidinyl)-2-(1-methylethyl)-1,3-thiazol-4-yl]phenyl}-3-fluorobenzenesulfonamide] | – |
